In brackets after ≈: the same amount, converted by molar mass.
system: Bipolaris oryzae; assay: Antifungal activity against Cochliobolus miyabeanus assessed as hyphal growth inhibition after 36 hrs; format: functional, organism-based

In order of falling IC50:
1. COc1cc(O)c2c(c1C)[C@](C)([C@H](C)O)OC2=O  500 µg/mL (≈ 1980 µM)
2. C=C1OC(=O)c2c(O)cc(O)c(C)c2[C@@]1(C)O  10 µg/mL (≈ 42.3 µM)
3. COc1cc(O)c2c(c1C)[C@](C)(C(C)=O)OC2=O  10 µg/mL (≈ 40 µM)
4. C=C1OC(=O)c2c(O)cc(OC)c(C)c2[C@@]1(C)O  0.5 µg/mL (≈ 2 µM)
